Test results from ChEMBL document CHEMBL2413072, “Synthesis and in vitro anticancer studies of novel C-2 arylidene congeners of lantadenes” (2013).

How the values were obtained:
Type in all cases: functional
UACC-62 = test: Growth inhibition of human UACC62 cells assessed as cell growth at 10^-7 M by sulforhodamine B assay; settings: read-out: Activity
U-251 [1] = test: Growth inhibition of human U251 cells assessed as cell growth at 10^-7 M by sulforhodamine B assay; settings: read-out: Activity
NCI-H226 = test: Growth inhibition of human NCI-H226 cells assessed as cell growth at 10^-4 M by sulforhodamine B assay; settings: read-out: Activity
T47D = test: Growth inhibition of human T47D cells assessed as cell growth at 10^-8 M by sulforhodamine B assay; settings: read-out: Activity
SF-268 [2] = test: Growth inhibition of human SF268 cells by sulforhodamine B assay
SK-MEL-5 = test: Growth inhibition of human SK-MEL-5 cells assessed as cell growth at 10^-8 M by sulforhodamine B assay; settings: read-out: Activity
MDA-MB-435 = test: Growth inhibition of human MDA-MB-435 cells assessed as cell growth at 10^-7 M by sulforhodamine B assay; settings: read-out: Activity
NCI-H23 [3] = test: Growth inhibition of human NCI-H23 cells assessed as cell growth at 10^-6 M by sulforhodamine B assay; settings: read-out: Activity
NCI-H522 = test: Growth inhibition of human NCI-H522 cells by sulforhodamine B assay
CCRF-CEM = test: Growth inhibition of human CCRF-CEM cells by sulforhodamine B assay
HCT-15 = test: Growth inhibition of human HCT15 cells assessed as cell growth at 10^-4 M by sulforhodamine B assay; settings: read-out: Activity
SR = test: Growth inhibition of human SR cells assessed as cell growth at 10^-4 M by sulforhodamine B assay; settings: read-out: Activity
NCI-H23 [4] = test: Growth inhibition of human NCI-H23 cells assessed as cell growth at 10^-8 M by sulforhodamine B assay; settings: read-out: Activity
SF-268 [5] = test: Growth inhibition of human SF268 cells assessed as cell growth at 10^-7 M by sulforhodamine B assay; settings: read-out: Activity
[6] = Growth inhibition of human NCI-ADR-RES cells assessed as cell growth at 10^-8 M by sulforhodamine B assay; settings: read-out: Activity
BT-549 = test: Growth inhibition of human BT549 cells assessed as cell growth at 10^-6 M by sulforhodamine B assay; settings: read-out: Activity
SNB-75 [7] = test: Growth inhibition of human SNB75 cells assessed as cell growth at 10^-7 M by sulforhodamine B assay; settings: read-out: Activity
SNB-75 [8] = test: Growth inhibition of human SNB75 cells by sulforhodamine B assay
DU-145 [9] = test: Growth inhibition of human DU145 cells by sulforhodamine B assay
NCI-H460 = test: Growth inhibition of human NCI-H460 cells assessed as cell growth at 10^-6 M by sulforhodamine B assay; settings: read-out: Activity
HOP-92 = test: Growth inhibition of human HOP92 cells by sulforhodamine B assay
U-251 [10] = test: Growth inhibition of human U251 cells assessed as cell growth at 10^-6 M by sulforhodamine B assay; settings: read-out: Activity
HL-60(TB) [11] = test: Growth inhibition of human HL-60(TB) cells assessed as cell growth at 10^-4 M by sulforhodamine B assay; settings: read-out: Activity
SK-MEL-28 [12] = test: Growth inhibition of human SK-MEL-28 cells by sulforhodamine B assay
PC-3 = test: Growth inhibition of human PC3 cells assessed as cell growth at 10^-4 M by sulforhodamine B assay; settings: read-out: Activity
CAKI-1 = test: Growth inhibition of human CAKI-1 cells assessed as cell growth at 10^-6 M by sulforhodamine B assay; settings: read-out: Activity
MCF7 [13] = test: Growth inhibition of human MCF7 cells assessed as cell growth at 10^-8 M by sulforhodamine B assay; settings: read-out: Activity
UACC-257 = test: Growth inhibition of human UACC257 cells assessed as cell growth at 10^-6 M by sulforhodamine B assay; settings: read-out: Activity
HL-60(TB) [14] = test: Growth inhibition of human HL-60(TB) cells assessed as cell growth at 10^-7 M by sulforhodamine B assay; settings: read-out: Activity
[15] = Growth inhibition of human Hs 578T cells by sulforhodamine B assay
DU-145 [16] = test: Growth inhibition of human DU145 cells assessed as cell growth at 10^-4 M by sulforhodamine B assay; settings: read-out: Activity
OVCAR-8 = test: Growth inhibition of human OVCAR8 cells assessed as cell growth at 10^-4 M by sulforhodamine B assay; settings: read-out: Activity
SN12C = test: Growth inhibition of human SN12C cells assessed as cell growth at 10^-7 M by sulforhodamine B assay; settings: read-out: Activity
HCT-116 [17] = test: Growth inhibition of human HCT116 cells assessed as cell growth at 10^-7 M by sulforhodamine B assay; settings: read-out: Activity
SK-MEL-2 = test: Growth inhibition of human SK-MEL-2 cells assessed as cell growth at 10^-8 M by sulforhodamine B assay; settings: read-out: Activity
MCF7 [18] = test: Growth inhibition of human MCF7 cells assessed as cell growth at 10^-6 M by sulforhodamine B assay; settings: read-out: Activity
SK-MEL-28 [19] = test: Growth inhibition of human SK-MEL-28 cells assessed as cell growth at 10^-8 M by sulforhodamine B assay; settings: read-out: Activity
HCT-116 [20] = test: Growth inhibition of human HCT116 cells by sulforhodamine B assay
A549 = test: Growth inhibition of human A549/ATCC cells assessed as cell growth at 10^-7 M by sulforhodamine B assay; settings: read-out: Activity
[21] = read-out: LC50 (the source's name)
[22] = read-out: pLC50 (the source's name) (converted)

C/C=C(/C)C(=O)O[C@@H]1CC(C)(C)C[C@H]2C3=CC[C@@H]4[C@@]5(C)CCC(=O)C(C)(C)[C@@H]5CC[C@@]4(C)[C@]3(C)CC[C@@]12C(=O)O [LANTADENE A]
growth at 0.1 µM (UACC-62): 85%
growth at 0.1 µM (U-251 [1]): 94%
growth at 100 µM (NCI-H226): 20%
growth at 0.01 µM (T47D): 99%
GI50 (SF-268 [2]; read-out: GI50): 5.96 µM
LC50 (SF-268 [2]; read-out: LC50): > 100 µM
TGI (SF-268 [2]; read-out: TGI): > 100 µM
GI50 (SF-268 [2]; read-out: pGI50 (converted)): 6.03 µM
LC50 (SF-268 [2]; read-out: pLC50 (converted)): > 100 µM
TGI (SF-268 [2]; read-out: pTGI (converted)): > 100 µM
growth at 0.01 µM (SK-MEL-5): 90%
growth at 0.1 µM (MDA-MB-435): 95%
growth at 1 µM (NCI-H23 [3]): 97%
GI50 (NCI-H522; read-out: GI50): 3.25 µM
CC50 (NCI-H522; [21]): > 100 µM
TGI (NCI-H522; read-out: TGI): 44.1 µM
GI50 (NCI-H522; read-out: pGI50 (converted)): 3.24 µM
CC50 (NCI-H522; [22]): > 100 µM
TGI (NCI-H522; read-out: pTGI (converted)): 43.7 µM
GI50 (CCRF-CEM; read-out: GI50): 3.48 µM
CC50 (CCRF-CEM; [21]): > 100 µM
TGI (CCRF-CEM; read-out: TGI): > 100 µM
GI50 (CCRF-CEM; read-out: pGI50 (converted)): 3.47 µM
CC50 (CCRF-CEM; [22]): > 100 µM
TGI (CCRF-CEM; read-out: pTGI (converted)): > 100 µM
growth at 100 µM (HCT-15): 9%
growth at 100 µM (SR): 12%
growth at 0.01 µM (NCI-H23 [4]): 100%
growth at 0.1 µM (SF-268 [5]): 101%
growth at 0.01 µM [6]: 104%
growth at 1 µM (BT-549): 90%
growth at 0.1 µM (SNB-75 [7]): 89%
GI50 (SNB-75 [8]; read-out: GI50): 14.2 µM
CC50 (SNB-75 [8]; [21]): > 100 µM
TGI (SNB-75 [8]; read-out: TGI): > 100 µM
GI50 (SNB-75 [8]; read-out: pGI50 (converted)): 14.1 µM
CC50 (SNB-75 [8]; [22]): > 100 µM
TGI (SNB-75 [8]; read-out: pTGI (converted)): > 100 µM
GI50 (DU-145 [9]; read-out: GI50): 5.92 µM
CC50 (DU-145 [9]; [21]): > 100 µM
TGI (DU-145 [9]; read-out: TGI): > 100 µM
GI50 (DU-145 [9]; read-out: pGI50 (converted)): 5.89 µM
CC50 (DU-145 [9]; [22]): > 100 µM
TGI (DU-145 [9]; read-out: pTGI (converted)): > 100 µM
growth at 1 µM (NCI-H460): 92%
GI50 (HOP-92; read-out: GI50): 1.19 µM
CC50 (HOP-92; [21]): > 100 µM
TGI (HOP-92; read-out: TGI): 5.36 µM
GI50 (HOP-92; read-out: pGI50 (converted)): 1.2 µM
CC50 (HOP-92; [22]): > 100 µM
TGI (HOP-92; read-out: pTGI (converted)): 5.37 µM
growth at 1 µM (U-251 [10]): 90%
growth at 100 µM (HL-60(TB) [11]): -38%
GI50 (SK-MEL-28 [12]; read-out: GI50): 12.8 µM
CC50 (SK-MEL-28 [12]; [21]): > 100 µM
TGI (SK-MEL-28 [12]; read-out: TGI): > 100 µM
GI50 (SK-MEL-28 [12]; read-out: pGI50 (converted)): 12.9 µM
CC50 (SK-MEL-28 [12]; [22]): > 100 µM
TGI (SK-MEL-28 [12]; read-out: pTGI (converted)): > 100 µM
growth at 100 µM (PC-3): 13%
growth at 1 µM (CAKI-1): 88%
growth at 0.01 µM (MCF7 [13]): 94%
growth at 1 µM (UACC-257): 91%
growth at 0.1 µM (HL-60(TB) [14]): 96%
GI50 ([15]; read-out: GI50): 5.1 µM
CC50 [15, 21]: > 100 µM
TGI ([15]; read-out: TGI): > 100 µM
GI50 ([15]; read-out: pGI50 (converted)): 5.13 µM
CC50 [15, 22]: > 100 µM
TGI ([15]; read-out: pTGI (converted)): > 100 µM
growth at 100 µM (DU-145 [16]): 29%
growth at 100 µM (OVCAR-8): 24%
growth at 0.1 µM (SN12C): 95%
growth at 0.1 µM (HCT-116 [17]): 90%
growth at 0.01 µM (SK-MEL-2): 111%
growth at 1 µM (MCF7 [18]): 87%
growth at 0.01 µM (SK-MEL-28 [19]): 97%
GI50 (HCT-116 [20]; read-out: GI50): 3.62 µM
LC50 (HCT-116 [20]; read-out: LC50): > 100 µM
TGI (HCT-116 [20]; read-out: TGI): > 100 µM
GI50 (HCT-116 [20]; read-out: pGI50 (converted)): 3.63 µM
LC50 (HCT-116 [20]; read-out: pLC50 (converted)): > 100 µM
TGI (HCT-116 [20]; read-out: pTGI (converted)): > 100 µM
growth at 0.1 µM (A549): 90%
